Laboratory results from patent US12448372B2, “Class of triaromatic compounds targeting bifunctional phosphorylation site of STAT3 and applications thereof” (SHANGHAI YUYAO BIOTECH LTD., priority 2019, dated 2025).
pIC50, pKd: −log10 of the molar value. Where two headings read alike, the source gives them in different places.

Legend:
[1] = target: STAT3 protein (Homo sapiens, UniProt P40763); experiment: Binding activity to STAT3 protein by microscale thermophoresis (MST); settings: purified STAT3 recombinant protein
Sequence of STAT3 protein (P40763 whole entry): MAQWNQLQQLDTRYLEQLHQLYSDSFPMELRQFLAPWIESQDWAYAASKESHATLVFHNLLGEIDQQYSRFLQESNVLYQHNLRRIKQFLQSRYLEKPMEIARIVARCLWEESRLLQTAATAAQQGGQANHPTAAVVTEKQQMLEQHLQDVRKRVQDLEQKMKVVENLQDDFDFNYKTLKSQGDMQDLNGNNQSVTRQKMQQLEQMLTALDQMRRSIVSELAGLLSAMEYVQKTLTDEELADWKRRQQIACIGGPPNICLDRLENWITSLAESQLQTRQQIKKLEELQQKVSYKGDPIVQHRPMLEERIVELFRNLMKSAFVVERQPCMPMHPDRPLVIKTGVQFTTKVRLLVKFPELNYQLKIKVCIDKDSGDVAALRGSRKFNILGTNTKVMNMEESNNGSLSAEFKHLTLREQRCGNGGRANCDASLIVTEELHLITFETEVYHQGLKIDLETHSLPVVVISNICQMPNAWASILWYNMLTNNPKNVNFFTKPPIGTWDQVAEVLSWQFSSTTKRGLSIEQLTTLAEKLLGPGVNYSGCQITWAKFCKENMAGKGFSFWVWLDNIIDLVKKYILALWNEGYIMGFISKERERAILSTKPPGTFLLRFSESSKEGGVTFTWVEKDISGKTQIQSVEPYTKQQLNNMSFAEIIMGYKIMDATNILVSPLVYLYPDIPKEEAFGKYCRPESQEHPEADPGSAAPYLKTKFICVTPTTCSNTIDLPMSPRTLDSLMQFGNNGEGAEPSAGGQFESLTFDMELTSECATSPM
Excerpt: (1) Determination of Binding Activities of Compounds to STAT3 Protein by Microscale Thermophoresis (MST) Method
The microscale thermophoresis (MST) technique is a simple, rapid, and accurate method for quantifying biomolecular interactions. It can measure the movement of molecules in a microscopic temperature gradient field, as well as detect changes of molecular hydration shell, charge and size. When the Nanotemper microscale thermophoresis instrument locally heated by a infrared laser, molecules will move in a directional manner, then the molecular distribution ratio in the temperature gradient field are analyzed by a fluorescence to detect whether a small molecule compound binds to a target protein. The experimental operation is as follows: firstly, compounds to be tested are diluted in a gradient using MST test buffer, total 16 concentrations being configured; subsequently, the purified STAT3 recombinant protein is labeled using the HIS tag labeling kit, and the final concentration of the labeled protein is 100-200 nM; the labeled STAT3 proteins are well mixed with the diluted compounds and incubated and protected from light for 30 minutes; finally the samples were loaded by capillary tube and detected on the instrument. The binding constants (K^D) of small molecules to STAT3 protein were analyzed by Mo. analysis software.

[2] = system: Capan-2; experiment: Cell proliferation by MTS method, Capan-2; type: cell-based; settings: for IC50: Table 1, Capan-2, read-out: Tumour cell proliferative activity/IC50(nM) Pancreatic Cancer Capan-2; for pIC50: Capan-2, FIG. 5B, read-out: IC50, inhibition of proliferation of pancreatic cancer cells; for improvement of anti-tumor proliferative activity over OPB51602 and IACS-010759: pancreatic cancer cells, FIG. 5B
Excerpt: (§1) (2) Detection of Cell Proliferation by MTS Method
(§2) The MTS assay is a method for indirectly determining the number of living cells via colourimetric method. MTS is a newly synthesised tetrazole compound that reflects cell viability, which can be reduced by succinate dehydrogenase in the mitochondria of living cells to an orange-coloured formazan with an absorbance of the reduced product measured at 490 nm being in proportion to the number of living cells, thus reflecting the cell viability. This assay can be used to evaluate the effect of the compound on the proliferation of pancreatic cancer cells, thereby determining the inhibitory effect of the compound on the proliferation of pancreatic cancer cells and to calculate the IC^50. Each cells were inoculated uniformly into a 96-well plate at a density of 1-20×10^3 cells/well, 100 μL per well, and placed in a constant temperature incubator until the cells adhered to the wall. The control group was added with the corresponding medium and the experimental groups were given different concentrations of the compound prepared by the examples of the present invention, and the cells were taken out 24-96 h after administration for observing the cell state under a microscope. Under light-proof conditions, MTS was added and well mixed, the mixture was placed in a constant temperature incubator at 37° C., and the light absorption value were measured using an enzyme marker at 490 nm and the experiment was repeated for three times, IC50 was calculated with GraphPad5 Prism software.

[3] = system: MKN45; experiment: Cell proliferation by MTS method, MKN45; type: cell-based; settings: Table 1, MKN45, read-out: Tumour cell proliferative activity/IC50(nM) gastric Cancer MKN45
Excerpt: as §1, §2

[4] = system: Huh7; experiment: Cell proliferation by MTS method, Huh7; type: cell-based; settings: Table 1, Huh7, read-out: Tumour cell proliferative activity/IC50(nM) Liver Cancer Huh7
Excerpt: as §1, §2

[5] = system: HCC827; experiment: Cell proliferation by MTS method, HCC827; type: cell-based; settings: Table 1, HCC827, read-out: Tumour cell proliferative activity/IC50(nM) Lung Cancer HCC827
Excerpt: as §1, §2

SMILES | pKd [1] | IC50 [2] [nM] | IC50 [3] [nM] | IC50 [4] [nM] | IC50 [5] [nM] | IC50 ([2]; Homo sapiens) [nM] | IC50 ([3]; Homo sapiens, MKN-45) [nM] | IC50 ([4]; Homo sapiens, Huh-7) [nM] | IC50 ([5]; Homo sapiens) [nM] | pIC50 ([2]; Homo sapiens) | improvement of anti-tumor proliferative activity over OPB51602 and IACS-010759 [2] [times]
Cn1c(C(=O)N2CCN(Cc3ccc(OCC(F)(F)F)cc3)CC2)cc2ccc(Oc3cnc(-c4nc(-c5ccccc5)no4)cn3)cc21 [Example 1, 1-methyl-(6-((5-(3-phenyl-1,2,4-oxadiazol-5-yl)pyrazin-2-yl)oxy)-1H-indol-2-yl)(4-(4-(2,2,2-trifluoroethoxy)benzyl)piperazin-1-yl)methanone] | > 8.00 | < 10 | < 10 | < 10 | < 10 | – | – | – | – | – | –
Cn1c(C(=O)N2CCN(Cc3ccc(OCC(F)(F)F)cc3)CC2)cc2ccc(Oc3cnc(-c4nc(-c5ccc(F)cc5)no4)cn3)cc21 [Example 2, (6-((5-(3-(4-fluorophenyl)-1,2,4-oxadiazol-5-yl)pyrazin-2-yl)oxy)-1-methyl-1H-indol-2-yl)(4-(4-(2,2,2-trifluoroethoxy)benzyl)piperazin-1-yl)methanone] | > 8.00 | – | – | – | – | < 10 | < 10 | < 10 | < 10 | – | –
Cn1c(C(=O)N2CCN(Cc3ccc(OCC(F)(F)F)cc3)CC2)cc2ccc(Oc3cnc(-c4nc(-c5ccccc5F)no4)cn3)cc21 [Example 3, (6-((5-(3-(2-fluorophenyl)-1,2,4-oxadiazol-5-yl)pyrazin-2-yl)oxy)1-methyl-1H-indol-2-yl)(4-(4-(2,2,2-trifluoroethoxy)benzyl)piperazin-1-yl)methanone] | > 8.00 | – | – | – | – | < 10 | < 10 | < 10 | < 10 | – | –
Cn1c(C(=O)N2CCN(Cc3ccc(OCC(F)(F)F)cc3)CC2)cc2ccc(Oc3cnc(-c4nc(-c5cccc(F)c5)no4)cn3)cc21 [Example 4, (6-((5-(3-(3-fluorophenyl)-1,2,4-oxadiazol-5-yl)pyrazin-2-yl)oxy)1-methyl-1H-indol-2-yl)(4-(4-(2,2,2-trifluoroethoxy)benzyl)piperazin-1-yl)methanone] | > 8.00 | – | – | – | – | < 10 | < 10 | < 10 | < 10 | – | –
COc1ccc(-c2noc(-c3cnc(Oc4ccc5cc(C(=O)N6CCN(Cc7ccc(OCC(F)(F)F)cc7)CC6)n(C)c5c4)cn3)n2)cc1 [Example 5, (6-((5-(3-(4-methoxyphenyl)-1,2,4-oxadiazol-5-yl)pyrazin-2-yl)oxy)1-methyl-1H-indol-2-yl)(4-(4-(2,2,2-trifluoroethoxy)benzyl)piperazin-1-yl)methanone] | > 8.00 | – | – | – | – | < 10 | < 10 | < 10 | < 10 | – | –
Cn1c(C(=O)N2CCN(Cc3ccc(OCC(F)(F)F)cc3)CC2)cc2ccc(Oc3cnc(-c4nc(-c5ccccc5C(F)(F)F)no4)cn3)cc21 [Example 7, (6-((5-(3-(2-(trifluoromethyl)phenyl)-1,2,4-oxadiazol-5-yl)pyrazin-2-yl)oxy)-1-methyl-1H-indol-2-yl)(4-(4-(2,2,2-trifluoroethoxy)benzyl)piperazin-1-yl)methanone] | > 9.00 | – | – | – | – | < 1 | < 1 | < 1 | < 1 | 9.31 | 10
Cn1c(C(=O)N2CCN(Cc3ccc(OCC(F)(F)F)cc3)CC2)cc2ccc(Oc3cnc(-c4nc(-c5cccc(C(F)(F)F)c5)no4)cn3)cc21 [Example 8, (6-((5-(3-(3-(trifluoromethyl)phenyl)-1,2,4-oxadiazol-5-yl)pyrazin-2-yl)oxy)-1-methyl-1H-indol-2-yl)(4-(4-(2,2,2-trifluoroethoxy)benzyl)piperazin-1-yl)methanone] | > 9.00 | – | – | – | – | < 1 | < 1 | < 1 | < 1 | 9.47 | 10
COc1ccccc1-c1noc(-c2cnc(Oc3ccc4cc(C(=O)N5CCN(Cc6ccc(OCC(F)(F)F)cc6)CC5)n(C)c4c3)cn2)n1 [Example 9, (6-((5-(3-(2-methoxyphenyl)-1,2,4-oxadiazol-5-yl)pyrazin-2-yl)oxy)-1-methyl-1H-indol-2-yl) (4-(4-(2,2,2-trifluoroethoxy)benzyl)piperazin-1-yl)methanone] | > 8.00 | – | – | – | – | < 10 | < 10 | < 10 | < 10 | – | –
COc1cccc(-c2noc(-c3cnc(Oc4ccc5cc(C(=O)N6CCN(Cc7ccc(OCC(F)(F)F)cc7)CC6)n(C)c5c4)cn3)n2)c1 [Example 10, (6-((5-(3-(3-methoxyphenyl)-1,2,4-oxadiazol-5-yl)pyrazin-2-yl)oxy)-1-methyl-1H-indol-2-yl) (4-(4-(2,2,2-trifluoroethoxy)benzyl)piperazin-1-yl)methanone] | > 8.00 | – | – | – | – | < 10 | < 10 | < 10 | < 10 | – | –
Cn1c(C(=O)N2CCN(Cc3ccc(OCC(F)(F)F)cc3)CC2)cc2ccc(Oc3cnc(-c4nc(-c5ccc(Cl)cc5)no4)cn3)cc21 [Example 11, (6-((5-(3-(4-chlorophenyl)-1,2,4-oxadiazol-5-yl)pyrazin-2-yl)oxy)-1-methyl-1H-indol-2-yl) (4-(4-(2,2,2-trifluoroethoxy)benzyl)piperazin-1-yl)methanone] | > 8.00 | – | – | – | – | < 10 | < 10 | < 10 | < 10 | – | –
Cn1c(C(=O)N2CCN(Cc3ccc(OCC(F)(F)F)cc3)CC2)cc2ccc(Oc3cnc(-c4nc(-c5ccc(Br)cc5)no4)cn3)cc21 [Example 12, (6-((5-(3-(4-bromophenyl)-1,2,4-oxadiazol-5-yl)pyrazin-2-yl)oxy)-1-methyl-1H-indol-2-yl) (4-(4-(2,2,2-trifluoroethoxy)benzyl)piperazin-1-yl)methanone] | > 8.00 | – | – | – | – | < 10 | < 10 | < 10 | < 10 | – | –
Cn1c(C(=O)N2CCN(Cc3ccc(OCC(F)(F)F)cc3)CC2)cc2ccc(Oc3cnc(-c4nc(-c5ccc(OC(F)(F)F)cc5)no4)cn3)cc21 [Example 13, (6-((5-(3-(4-(trifluoromethoxy)phenyl)-1,2,4-oxadiazol-5-yl)pyrazin-2-yl)oxy)-1-methyl-1H-indol-2-yl) (4-(4-(2,2,2-trifluoroethoxy)benzyl)piperazin-1-yl)methanone] | > 8.00 | – | – | – | – | < 10 | < 10 | < 10 | < 10 | – | –
O=C(c1cc2ccc(Oc3cnc(-c4nc(-c5ccc(C(F)(F)F)cc5)no4)cn3)cc2[nH]1)N1CCN(Cc2ccc(OCC(F)(F)F)cc2)CC1 [Example 14, (6-((5-(3-(4-(trifluoromethyl)phenyl)-1,2,4-oxadiazol-5-yl)pyrazin-2-yl)oxy)-1H-indol-2-yl) (4-(4-(2,2,2-trifluoroethoxy)benzyl)piperazin-1-yl)methanone] | > 7.00 | – | – | – | – | < 100 | < 100 | < 100 | < 100 | – | –
CCn1c(C(=O)N2CCN(Cc3ccc(OCC(F)(F)F)cc3)CC2)cc2ccc(Oc3cnc(-c4nc(-c5ccc(C(F)(F)F)cc5)no4)cn3)cc21 [Example 15, (1-ethyl-6-((5-(3-(4-(trifluoromethyl)phenyl)-1,2,4-oxadiazol-5-yl)pyrazin-2-yl)oxy)-1H-indol-2-yl)(4-(4-(2,2,2-trifluoromethoxy)benzyl)piperazin-1-yl)methanone] | > 8.00 | – | – | – | – | < 10 | < 10 | < 10 | < 10 | – | –
